In US12275731B2, “Azaindole inhibitors of wild-type and mutant forms of LRRK2” (DANA-FARBER CANCER INSTITUTE, INC., priority 2018, dated 2025):

Columns and labels:
Experiment in all cases: KinomeScan profiling
Assay type in all cases: binding
[1] = molecular target: T1, ACVR1B (Homo sapiens, UniProt P36896); conditions: read-out: % control
T1 construct: purchased KinomeScan®
T1 sequence (P36896 24-505): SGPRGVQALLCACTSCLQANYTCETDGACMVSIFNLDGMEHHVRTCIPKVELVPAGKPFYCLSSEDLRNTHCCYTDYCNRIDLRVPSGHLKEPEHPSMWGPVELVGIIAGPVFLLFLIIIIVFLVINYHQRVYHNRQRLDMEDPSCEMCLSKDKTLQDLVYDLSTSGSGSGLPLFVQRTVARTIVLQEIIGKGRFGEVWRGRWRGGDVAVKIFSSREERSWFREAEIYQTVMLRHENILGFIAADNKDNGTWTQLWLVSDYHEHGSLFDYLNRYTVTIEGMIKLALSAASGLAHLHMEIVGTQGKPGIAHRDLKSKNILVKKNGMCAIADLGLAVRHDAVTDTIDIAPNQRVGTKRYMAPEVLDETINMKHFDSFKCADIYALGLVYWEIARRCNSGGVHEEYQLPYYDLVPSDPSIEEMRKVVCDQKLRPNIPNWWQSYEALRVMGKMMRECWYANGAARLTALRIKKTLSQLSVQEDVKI
Procedure, shortened: (§1)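 At 1 μM in DMSO, compounds are run through a broad 468-member kinase panel. The luminescent read-out is normalised so that vehicle gives 100% and a positive control gives 0%; any kinase falling below 35% is treated as a target.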

[2] = molecular target: T2, EPHB4 (Homo sapiens, UniProt P54760); conditions: EPHB4, 1 μM; read-out: % control
T2 sequence (P54760 16-987): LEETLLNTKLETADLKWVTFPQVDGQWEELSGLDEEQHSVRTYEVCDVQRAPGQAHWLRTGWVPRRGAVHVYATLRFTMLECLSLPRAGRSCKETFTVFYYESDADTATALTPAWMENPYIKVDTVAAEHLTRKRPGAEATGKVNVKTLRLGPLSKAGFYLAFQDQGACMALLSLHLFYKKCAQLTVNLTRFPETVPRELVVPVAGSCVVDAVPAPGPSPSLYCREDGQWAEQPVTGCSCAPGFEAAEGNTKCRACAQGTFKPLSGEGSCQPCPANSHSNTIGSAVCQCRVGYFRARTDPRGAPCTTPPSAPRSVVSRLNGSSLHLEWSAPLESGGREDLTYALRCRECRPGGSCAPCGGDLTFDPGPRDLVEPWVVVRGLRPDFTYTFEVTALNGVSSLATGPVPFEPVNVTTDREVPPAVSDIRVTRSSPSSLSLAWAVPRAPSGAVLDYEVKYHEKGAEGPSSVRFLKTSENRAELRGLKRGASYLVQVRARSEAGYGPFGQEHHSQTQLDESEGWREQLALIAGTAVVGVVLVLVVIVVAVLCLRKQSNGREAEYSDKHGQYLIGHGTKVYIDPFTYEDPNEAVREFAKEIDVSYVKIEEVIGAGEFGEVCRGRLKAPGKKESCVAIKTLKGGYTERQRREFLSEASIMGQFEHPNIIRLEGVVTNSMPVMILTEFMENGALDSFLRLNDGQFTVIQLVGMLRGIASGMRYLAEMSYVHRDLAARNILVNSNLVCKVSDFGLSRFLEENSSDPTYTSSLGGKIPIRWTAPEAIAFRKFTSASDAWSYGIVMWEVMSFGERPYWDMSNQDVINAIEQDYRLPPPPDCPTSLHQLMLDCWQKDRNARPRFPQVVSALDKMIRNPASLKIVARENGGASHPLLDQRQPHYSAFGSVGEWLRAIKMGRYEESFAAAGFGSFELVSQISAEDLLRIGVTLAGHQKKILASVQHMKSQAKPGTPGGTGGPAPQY
Procedure, shortened: as §1

[3] = molecular target: MRCKA (Homo sapiens, UniProt Q5VT25); conditions: read-out: % control
Procedure, shortened: as §1

[4] = molecular target: NEK7 (Homo sapiens, UniProt Q8TDX7); conditions: NEK7, 1 μM; read-out: % control
Procedure, shortened: as §1

[5] = molecular target: RET(M918T) (Homo sapiens, UniProt P07949, M918T); conditions: read-out: % control
Procedure, shortened: as §1

[6] = molecular target: T3, ZAP70 (Homo sapiens, UniProt P43403); conditions: ZAP70, 1 μM; read-out: % control
T3 sequence (P43403 1-619): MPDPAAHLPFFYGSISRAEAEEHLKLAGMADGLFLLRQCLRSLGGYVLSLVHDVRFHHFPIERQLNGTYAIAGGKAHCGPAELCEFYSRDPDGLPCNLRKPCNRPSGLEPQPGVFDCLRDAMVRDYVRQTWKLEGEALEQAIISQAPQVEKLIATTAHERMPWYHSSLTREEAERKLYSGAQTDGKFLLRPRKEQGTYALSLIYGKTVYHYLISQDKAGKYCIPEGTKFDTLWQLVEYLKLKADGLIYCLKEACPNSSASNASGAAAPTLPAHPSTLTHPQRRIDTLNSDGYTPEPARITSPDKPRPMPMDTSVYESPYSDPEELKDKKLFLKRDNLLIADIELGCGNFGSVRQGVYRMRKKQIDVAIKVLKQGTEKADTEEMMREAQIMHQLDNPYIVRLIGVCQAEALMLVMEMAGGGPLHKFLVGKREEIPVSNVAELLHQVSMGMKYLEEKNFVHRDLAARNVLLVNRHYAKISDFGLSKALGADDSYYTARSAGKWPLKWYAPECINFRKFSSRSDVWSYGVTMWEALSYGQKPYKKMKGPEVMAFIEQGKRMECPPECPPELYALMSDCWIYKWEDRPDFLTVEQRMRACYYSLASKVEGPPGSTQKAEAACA
Procedure, shortened: as §1

Sequence of RET(M918T) (P07949 29-1114 M918T): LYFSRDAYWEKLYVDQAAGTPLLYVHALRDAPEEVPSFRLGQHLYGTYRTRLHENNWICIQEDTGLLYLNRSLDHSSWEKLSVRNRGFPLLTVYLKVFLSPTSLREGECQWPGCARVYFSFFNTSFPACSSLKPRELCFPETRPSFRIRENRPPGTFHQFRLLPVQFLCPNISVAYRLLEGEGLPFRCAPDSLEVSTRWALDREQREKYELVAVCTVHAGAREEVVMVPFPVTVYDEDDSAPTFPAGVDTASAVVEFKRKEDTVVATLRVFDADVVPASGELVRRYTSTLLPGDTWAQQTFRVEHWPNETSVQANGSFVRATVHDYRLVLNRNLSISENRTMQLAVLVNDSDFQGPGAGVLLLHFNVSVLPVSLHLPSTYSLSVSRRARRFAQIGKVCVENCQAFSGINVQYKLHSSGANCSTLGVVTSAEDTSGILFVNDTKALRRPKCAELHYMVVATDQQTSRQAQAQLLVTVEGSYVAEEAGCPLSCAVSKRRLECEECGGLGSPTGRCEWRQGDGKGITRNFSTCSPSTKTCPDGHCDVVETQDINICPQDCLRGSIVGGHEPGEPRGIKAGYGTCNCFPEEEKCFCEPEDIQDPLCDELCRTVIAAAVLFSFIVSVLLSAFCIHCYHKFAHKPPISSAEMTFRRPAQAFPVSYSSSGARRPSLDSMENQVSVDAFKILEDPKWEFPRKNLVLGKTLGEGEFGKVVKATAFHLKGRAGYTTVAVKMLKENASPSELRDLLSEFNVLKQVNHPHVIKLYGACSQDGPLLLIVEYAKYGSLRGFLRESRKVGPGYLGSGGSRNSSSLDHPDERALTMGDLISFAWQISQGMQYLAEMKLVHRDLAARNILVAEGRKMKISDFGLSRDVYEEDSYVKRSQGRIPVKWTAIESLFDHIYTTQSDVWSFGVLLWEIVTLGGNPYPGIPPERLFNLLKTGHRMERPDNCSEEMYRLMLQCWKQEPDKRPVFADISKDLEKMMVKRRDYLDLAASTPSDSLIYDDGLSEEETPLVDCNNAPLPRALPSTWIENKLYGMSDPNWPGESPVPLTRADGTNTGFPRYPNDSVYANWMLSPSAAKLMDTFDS
Sequence of NEK7 (Q8TDX7 whole entry): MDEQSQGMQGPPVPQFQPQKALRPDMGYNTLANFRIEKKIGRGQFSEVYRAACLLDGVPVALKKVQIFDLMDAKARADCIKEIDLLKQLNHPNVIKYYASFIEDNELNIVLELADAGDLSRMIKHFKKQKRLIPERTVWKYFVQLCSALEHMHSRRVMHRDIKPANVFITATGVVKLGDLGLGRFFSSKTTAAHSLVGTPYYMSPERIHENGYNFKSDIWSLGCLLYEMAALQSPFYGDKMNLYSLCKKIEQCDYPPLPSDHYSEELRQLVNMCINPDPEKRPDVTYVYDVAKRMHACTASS
Sequence of MRCKA (Q5VT25 whole entry): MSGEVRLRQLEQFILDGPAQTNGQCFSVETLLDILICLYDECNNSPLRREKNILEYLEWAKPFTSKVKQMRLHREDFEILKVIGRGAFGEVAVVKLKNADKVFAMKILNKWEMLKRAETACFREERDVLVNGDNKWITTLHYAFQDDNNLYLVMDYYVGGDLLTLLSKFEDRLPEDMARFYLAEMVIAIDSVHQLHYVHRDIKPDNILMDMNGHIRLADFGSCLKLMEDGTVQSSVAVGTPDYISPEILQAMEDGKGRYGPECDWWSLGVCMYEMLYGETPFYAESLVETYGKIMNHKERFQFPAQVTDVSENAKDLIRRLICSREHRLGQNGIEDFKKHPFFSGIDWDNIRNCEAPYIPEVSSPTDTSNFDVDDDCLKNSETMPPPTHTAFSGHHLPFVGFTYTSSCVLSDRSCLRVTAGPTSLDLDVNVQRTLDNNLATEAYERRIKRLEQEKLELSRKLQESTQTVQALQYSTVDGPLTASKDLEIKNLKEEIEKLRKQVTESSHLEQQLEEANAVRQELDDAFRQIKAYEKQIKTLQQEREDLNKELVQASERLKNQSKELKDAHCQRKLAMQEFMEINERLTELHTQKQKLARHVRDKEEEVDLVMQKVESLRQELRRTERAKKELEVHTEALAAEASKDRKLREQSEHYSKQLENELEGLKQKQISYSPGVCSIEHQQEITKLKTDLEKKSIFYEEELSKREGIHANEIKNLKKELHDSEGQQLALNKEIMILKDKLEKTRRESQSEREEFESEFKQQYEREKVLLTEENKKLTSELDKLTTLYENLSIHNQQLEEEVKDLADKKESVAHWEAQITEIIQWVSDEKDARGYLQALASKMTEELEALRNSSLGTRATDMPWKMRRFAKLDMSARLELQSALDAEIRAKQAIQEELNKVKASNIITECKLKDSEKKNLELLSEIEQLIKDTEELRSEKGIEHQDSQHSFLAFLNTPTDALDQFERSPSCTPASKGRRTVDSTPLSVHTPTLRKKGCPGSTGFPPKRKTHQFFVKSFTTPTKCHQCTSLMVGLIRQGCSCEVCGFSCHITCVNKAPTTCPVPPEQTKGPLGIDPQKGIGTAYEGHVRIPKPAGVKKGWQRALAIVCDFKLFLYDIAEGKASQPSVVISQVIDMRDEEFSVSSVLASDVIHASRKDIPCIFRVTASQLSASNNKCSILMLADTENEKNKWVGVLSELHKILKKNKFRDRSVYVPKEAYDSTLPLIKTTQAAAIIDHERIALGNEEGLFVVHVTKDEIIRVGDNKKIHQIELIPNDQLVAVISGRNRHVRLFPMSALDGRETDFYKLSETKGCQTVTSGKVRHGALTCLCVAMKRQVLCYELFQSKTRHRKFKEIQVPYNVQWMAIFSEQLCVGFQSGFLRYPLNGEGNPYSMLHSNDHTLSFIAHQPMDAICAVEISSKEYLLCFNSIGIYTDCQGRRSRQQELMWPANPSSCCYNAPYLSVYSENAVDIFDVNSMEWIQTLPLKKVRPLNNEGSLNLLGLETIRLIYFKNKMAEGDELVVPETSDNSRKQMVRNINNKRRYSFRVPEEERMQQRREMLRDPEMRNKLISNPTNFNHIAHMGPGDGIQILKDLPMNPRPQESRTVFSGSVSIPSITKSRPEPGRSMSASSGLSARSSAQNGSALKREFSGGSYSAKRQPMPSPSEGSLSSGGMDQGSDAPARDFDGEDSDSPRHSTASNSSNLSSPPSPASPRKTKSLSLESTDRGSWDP

Row | SMILES | remaining binding at 1 µM [1] | remaining binding at 1 µM [2] | remaining binding at 1 µM [3] | remaining binding at 1 µM [4] | remaining binding at 1 µM [5] | remaining binding at 1 µM [6]
1 | CNc1c(-c2cnn([C@H]3CCN(C(C)=O)C[C@@H]3F)c2)cnc2[nH]cc(Cl)c12 [Compound 77, 1-((3S,4S)-4-(4-(3-chloro-4-(methylamino)-1H-pyrrolo[2,3-b]pyridin-5-yl)-1H-pyrazol-1-yl)-3-fluoropiperidin-1-yl)ethan-1-one] | 83% | 100% | 100% | 100% | 33% | 100%
2 | CNc1c(-c2ccc(C(=O)N3CCC(N4CCOCC4)CC3)cc2)cnc2[nH]cc(Cl)c12 [Compound 96, (4-(3-chloro-4-(methylamino)-1H-pyrrolo[2,3-b]pyridin-5-yl)phenyl)(4-morpholinopiperidin-1-yl)methanone] | 74% | 100% | 100% | 100% | 72% | 100%
3 | O=C(c1ccc(-c2cnc3[nH]cc(Cl)c3c2NC2CCCC2)cc1)N1CCC(N2CCOCC2)CC1 [Compound 101, (4-(3-chloro-4-(cyclopentylamino)-1H-pyrrolo[2,3-b]pyridin-5-yl)phenyl)(4-morpholinopiperidin-1-yl)methanone] | 98% | 62% | 100% | 95% | 95% | 55%
